Broadly, the Km is the concentration of substrate that gives half-maximal velocity.

Each structure is given as a SMILES string.

Results on two molecules are retold here after US5962284A, “Acrylamidase enzymes” (Ciba Specialty Chemicals Water Treatments Limited, priority 1997, dated 1999).

In experiment [1] the test system is acrylamidase produced by Rhodococcus species NCIMB 40755. The note with it: read-out: Km for acrylamide; pH 4.0, 30° C., cell suspension. The text has this: (§1) For measurement of Km (see below) the same conditions can be used, except that the acrylamide concentration is of course varied. One unit (U) of amidase activity hydrolyses 1 micromole of acrylamido per minute under the above conditions. The specific activity is the amount of units of activity present per dry gram of cell material. The relative activity is the % activity relative to activity at ph 7.
(§2) In this specification, Km is Km for acrylamide measured at pH 4.0.

The subject of experiment [2] is acrylamidase produced by Rhodococcus erythropolis NCIMB 40889. The note with it: read-out: Km for acrylamide; pH 4.0, 30° C., cell suspension.
From the text: as §1, §2

The test system is the same in experiment [3]. The experiment in a line: Adipic acid activity assay (amidase activity at pH 4 with added adipic acid). Type of experiment: biochemical. Conditions: pH 4, 50 mM acrylamide, 30° C.
From the text: as §1
In this specification, comparison of acrylamidase activity in the presence of adipic acid and in the absence of adipic acid is measured by the following adipic acid activity assay:
To an assay mixture at pH 4 as described for measurement of activity at pH 4 and pH 7 is added adipic acid to give the concentrations required. Cell suspension is then added to the assay mixture. The amidase activity of each suspension is then measured. The relative activity is % activity relative to activity in the absence of adipic acid.

Consider `C=CC(N)=O` [acrylamide], for which the Km worked out at 6 mM in experiment [1] and 11.6 mM in experiment [2].
In the case of `O=C(O)CCCCC(=O)O` [Adipic Acid, adipic acid], the “Relative Activity (%) relative to activity in the absence of adipic acid” value in experiment [3] (5 mM adipic acid) was 95%; in experiment [3] (10 mM adipic acid), 69%; in experiment [3] (15 mM adipic acid) it was 38%; in experiment [3] (22.5 mM adipic acid), 30%; in experiment [3] (25 mM adipic acid), 29%; in experiment [3] (50 mM adipic acid) it was 12%.
